Like-named read-outs stand apart in the source and are kept apart here.
Experiments:
hGAT3 = biological target: T1, hGAT3 (Homo sapiens, UniProt P48066); assay: [3H]GABA uptake inhibition at hGAT3 stably expressed in CHO Flp-In cells; type: cell-based; settings: 30 nM [3H]GABA, 3 min, CHO Flp-In cells stably expressing hGAT3; read-out: IC50 hGAT3
T1 construct: expressed in transfected cells
T1 sequence (P48066 1-632): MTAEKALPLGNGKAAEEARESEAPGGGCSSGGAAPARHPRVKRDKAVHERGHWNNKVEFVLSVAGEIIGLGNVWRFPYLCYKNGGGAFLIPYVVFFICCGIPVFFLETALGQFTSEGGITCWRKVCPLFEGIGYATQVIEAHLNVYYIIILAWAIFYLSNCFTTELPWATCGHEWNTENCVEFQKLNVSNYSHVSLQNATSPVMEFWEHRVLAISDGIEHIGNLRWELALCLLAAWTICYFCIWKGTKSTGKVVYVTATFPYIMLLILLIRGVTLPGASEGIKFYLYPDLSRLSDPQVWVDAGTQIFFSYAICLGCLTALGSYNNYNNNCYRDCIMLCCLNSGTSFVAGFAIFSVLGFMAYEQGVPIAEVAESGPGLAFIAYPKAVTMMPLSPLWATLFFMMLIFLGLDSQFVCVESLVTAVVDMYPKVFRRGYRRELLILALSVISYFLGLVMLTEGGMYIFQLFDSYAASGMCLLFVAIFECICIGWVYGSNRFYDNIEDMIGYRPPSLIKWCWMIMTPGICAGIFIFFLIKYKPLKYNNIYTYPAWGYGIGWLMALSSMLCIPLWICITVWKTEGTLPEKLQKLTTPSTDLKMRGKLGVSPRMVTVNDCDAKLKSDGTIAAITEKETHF
Description: CHO Flp-In and tsA201 cells were cultured at 37 °C in a humidified atmosphere of […] and 5% CO2. As previously described[38],[63], CHO Flp-In cells stably expressing the hGATs were cultured in Ham’s F12 Nutrient Mix supplemented with 10% FBS, 1% P/S and plasmocin (5 µg/mL) under the selection pressure of hygromycin B (200 µg/mL). DMEM with GlutaMAX-I supplemented with 10% FBS and 1% P/S was used as growth medium for the tsA201 cells, which were transfected with DNA constructs using PolyFect according to the manufacturer’s specifications (Qiagen, West Sussex, UK), but with half of the recommended reagent volumes.
Uptake assays were performed in PDL-coated white 96-well polystyrene cell culture microplates (PerkinElmer, Boston, MA, USA) as previously described[38],[63]. […] Assay buffer was HBSS supplemented with 20 mM HEPES, 1 mM CaCl2 and 1 mM MgCl2, pH 7.4. […] After termination, scintillation liquid (MicroScint-20, PerkinElmer) was added and the radioactivity measured in a TopCount NXT Microplate Scintillation Counter (PerkinElmer).
Data analysis and statistical evaluation were performed in GraphPad Prism 7.02 (GraphPad Software, San Diego, CA, USA). Concentration-uptake inhibition curves, generated from the radioligand-based uptake assays, were fitted by non-linear regression, using the equation for sigmoidal concentration–response with variable slope: Y = Bottom + (Top–Bottom)/(1 + 10^((logIC50 − X) × HillSlope)), where Y is the response, X is the logarithm of the concentration, Top and Bottom are the plateaus in same units as Y, logIC50 is the concentration giving a response halfway between Bottom and Top, and the HillSlope is the steepness of the curve. For the substrate concentration–response curves generated from the FMP assay, the same equation was used but with logEC50 instead for logIC50. Unless otherwise stated, data are presented as means ± S.E.M. of at least three independent pooled experiments performed in triplicates.

hGAT3 wt = biological target: T2, hGAT3 wt (Homo sapiens, UniProt P48066); assay: [3H]GABA uptake inhibition at wt hGAT3 transiently expressed in tsA201 cells; type: cell-based; settings: 30 nM [3H]GABA, transient expression
T2 construct: expressed in transfected cells; host or cells: tsA201 cells, transient (PolyFect), pcDNA5/FRT vector
T2 sequence (P48066 1-632): T1 sequence (P48066 1-632)

hBGT1 E52A = biological target: T3, hBGT1 E52A (Homo sapiens, UniProt P48065, E52A); assay: cell-based; settings: 30 nM [3H]GABA, tsA201 cells, transient expression
T3 sequence (P48065 1-614 E52A): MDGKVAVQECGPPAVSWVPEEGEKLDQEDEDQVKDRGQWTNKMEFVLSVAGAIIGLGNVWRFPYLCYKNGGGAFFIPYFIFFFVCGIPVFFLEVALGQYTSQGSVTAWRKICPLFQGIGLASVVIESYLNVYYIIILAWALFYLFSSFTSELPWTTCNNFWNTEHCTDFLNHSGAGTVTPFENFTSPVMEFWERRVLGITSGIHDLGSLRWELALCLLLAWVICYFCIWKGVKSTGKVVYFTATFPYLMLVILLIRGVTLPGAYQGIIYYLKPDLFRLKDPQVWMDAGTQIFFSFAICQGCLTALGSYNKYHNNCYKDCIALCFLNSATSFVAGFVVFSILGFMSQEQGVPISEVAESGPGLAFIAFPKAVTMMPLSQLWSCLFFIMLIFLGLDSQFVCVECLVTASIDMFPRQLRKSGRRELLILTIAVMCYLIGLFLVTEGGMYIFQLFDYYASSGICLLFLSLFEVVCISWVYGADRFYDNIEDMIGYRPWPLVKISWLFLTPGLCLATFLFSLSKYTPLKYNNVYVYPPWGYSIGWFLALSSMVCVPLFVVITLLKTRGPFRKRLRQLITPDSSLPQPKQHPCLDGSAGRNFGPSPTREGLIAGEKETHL

[1] = read-out: pIC50 ± S.E.M. GAT3 wt (converted)

Compound | IC50 (hGAT3) | IC50 (hGAT3 wt; read-out: IC50 GAT3 wt) | IC50 (hBGT1 E52A; pIC50 ± S.E.M. BGT1 E52A) | IC50 (hGAT3 wt; [1]) | IC50 (hBGT1 E52A; IC50 BGT1 E52A)
C[C@@H]1N=C(N)NC[C@@H]1C(=O)O (single isomer, unassigned) [l-15a] | > 1000 µM | > 1000 µM | 37.2 µM |  | 
NC1=NCC(C(=O)O)CN1 (centres unmarked) [ATPCA, 2-amino-1,4,5,6-tetrahydropyrimidine-5-carboxylic acid, reference compound] |  | 851 µM |  | 589 µM | 4.4 µM
NC1=NCC(C(=O)O)CC1 (centres unmarked) [compound 2, 6-amino-2,3,4,5-tetrahydropyridine-3-carboxylic acid, reference compound] | > 1000 µM | > 1000 µM | 30.2 µM |  | 31 µM
CCN1CC(C(=O)O)CN=C1N.Cl (centres unmarked) [compound 3] | > 1000 µM | > 1000 µM | 72.4 µM |  | 74 µM
Cl.NC1=NCC(C(=O)O)CN1Cc1ccccc1 (centres unmarked) [compound 4] | 117 µM | 122 µM | 87.1 µM | 115 µM | 90 µM
NC1=NC=C(C(=O)O)CN1.O=C(O)C(F)(F)F [compound 11] | > 1000 µM | > 1000 µM | 240 µM |  | 247 µM
